Results on 1 substance are retold here after article PMC6081452, “Downstream Products are Potent Inhibitors of the Heparan Sulfate 2-O-Sulfotransferase” (Scientific Reports, 2018).

Entries after “also recorded” stand apart in the source; their conditions may differ.

For assay [1], the target named is T1, glyc-HS2ST (glycosylated human HS2ST), WT (Homo sapiens, UniProt Q7LGA3).
T1 construct: the human HS2ST catalytic domain region comprising of 328 amino acid residues; His8 (N, cleaved yes); AviTag (N, cleaved yes); superfolder GFP (N, cleaved yes); made in house; host or cells: HEK293-F (transient transfection, secreted)
T1 sequence (Q7LGA3 29-356 limits assumed): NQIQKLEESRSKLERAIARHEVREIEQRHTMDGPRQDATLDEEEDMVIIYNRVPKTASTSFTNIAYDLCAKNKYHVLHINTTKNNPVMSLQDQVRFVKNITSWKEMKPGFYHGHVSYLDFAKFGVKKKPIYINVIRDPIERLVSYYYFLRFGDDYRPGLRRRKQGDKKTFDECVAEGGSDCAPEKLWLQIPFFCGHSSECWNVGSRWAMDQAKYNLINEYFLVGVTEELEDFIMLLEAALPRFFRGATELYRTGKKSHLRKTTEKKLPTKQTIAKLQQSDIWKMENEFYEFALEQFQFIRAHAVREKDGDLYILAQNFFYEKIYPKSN
In words: BLI equilibrium binding, glyc-HS2ST WT. The settings on record: BLI saturation binding curves, biotin-PEG4-linked hexasaccharide immobilised on sensor, n = 3, ± standard error of fit, 25 °C, PBS pH 7.8. The source says: HS-protein binding studies often utilize biologically-derived oligosaccharides of heterogeneous length and sulfation[34],[35]; however, the synthesis of oligosaccharides with defined length and specific sulfation patterns has recently become possible. We employed biolayer interferometry (BLI) to determine equilibrium surface binding constants (KD) for HS2ST with synthetic HS hexasaccharides (Fig. 1 and Supplementary Table 1). The HS compounds were attached to the BLI biosensor surface to conserve sample and to ensure a significant signal upon protein binding. The HS compounds contained a biotinylated PEG4 linker at the reducing terminus, enhancing the likelihood of a consistent presentation of the linear glycan on the sensor surface, in contrast to immobilizations via intra-chain modifications. […]
An expression construct was generated encoding the truncated catalytic domain of human HS2ST as an NH2-terminal fusion protein in the pGEn2 expression vector essentially as described in prior studies. […] The recombinant human HS2ST was expressed as a soluble secreted protein by transient transfection of suspension culture HEK293-F cells (FreeStyle^TM 293-Fcells, Thermo Fisher Scientific, Waltham MA) maintained at 0.5–3.0 × 10^6 cells/ml in a humidified CO2 platform shaker incubator at 37 °C with 55% humidity. […]

Assay [2] has as its target T2, non-glyc-HS2ST (non-glycosylated chicken HS2ST), WT (Gallus gallus, UniProt Q76KB1).
T2 construct: made in house; host or cells: E. coli Origami B (DE3)
T2 sequence (Q76KB1 69-356 limits assumed): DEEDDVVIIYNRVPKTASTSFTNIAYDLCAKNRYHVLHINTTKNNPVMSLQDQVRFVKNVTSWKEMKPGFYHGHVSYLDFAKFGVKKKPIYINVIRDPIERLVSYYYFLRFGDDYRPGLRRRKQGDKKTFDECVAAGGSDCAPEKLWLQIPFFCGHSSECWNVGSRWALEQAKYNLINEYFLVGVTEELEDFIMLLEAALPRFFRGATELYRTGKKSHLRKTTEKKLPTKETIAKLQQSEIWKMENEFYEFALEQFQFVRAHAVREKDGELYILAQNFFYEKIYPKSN
In words: BLI equilibrium binding, non-glyc-HS2ST WT. The note with it: BLI saturation binding curves, biotin-PEG4-linked hexasaccharide on sensor, n = 3, ± standard error of fit; — = response too weak to fit. The source says:
HS-protein binding studies often utilize biologically-derived oligosaccharides of heterogeneous length and sulfation[34],[35]; however, the synthesis of oligosaccharides with defined length and specific sulfation patterns has recently become possible. We employed biolayer interferometry (BLI) to determine equilibrium surface binding constants (KD) for HS2ST with synthetic HS hexasaccharides (Fig. 1 and Supplementary Table 1). The HS compounds were attached to the BLI biosensor surface to conserve sample and to ensure a significant signal upon protein binding. The HS compounds contained a biotinylated PEG4 linker at the reducing terminus, enhancing the likelihood of a consistent presentation of the linear glycan on the sensor surface, in contrast to immobilizations via intra-chain modifications.
Binding constants were collected for two isoforms of the enzyme; a glycosylated human variant (glyc-HS2ST) expressed in mammalian cell lines, and a highly homologous (96% identity) non-glycosylated chicken isoform expressed in E. coli (non-glyc-HS2ST). […] Thus, the enhanced ligand affinity seen in HS2ST was unexpected and may relate to the specific position of the glycosylation site (N108)[41].
The chicken HS2ST-Maltose Binding Protein (MBP) fusion protein was expressed and purified according to previous studies. The fusion protein was transformed into E. coli Origami B (DE3) cells, cultured at 37 °C until OD600 reached 0.5, then induced with isopropyl-β-D-thiogalactopyranoside and allowed to grow overnight at 20 °C. Cells were sonicated, followed by a two-step purification procedure. Whole-cell supernatant was passed through an amylose column with Tris buffer (25 mM Tris, 500 mM NaCl, pH 7.5). An elution buffer consisted of Tris Buffer with 40 mM Maltose. The amylose column eluent was concentrated and loaded on a Superdex 200 Increase 10/300 GL with PBS buffer (10 mM sodium phosphate, 150 mM NaCl, pH 7.8) to separate trimeric protein from aggregate and independent MBP (Supplementary Fig. 4). All reported mutations formed homotrimeric complexes according to the SEC profiles, including the negative control (NC = R189A/R80E/R184E). Protein concentration was assessed via UV at 280 nm (MW of trimer ~210 KDa, extinction coefficient ~119,000 M^−1 cm^−1 according to ExPASy ProtParam webtool[56]). The trimeric protein preparation was adjusted to 5% glycerol and stored at −20 °C until use. Additional non-glyc-HS2ST constructs were created with the Q5® Mutagenesis kit (New England Biolabs Inc.; cat. # E0554S) and sequenced at the Georgia Genomics Facility at the University of Georgia.
The Octet® RED96 system (FortéBio Inc.) was employed to detect the affinity of the enzymes for specific HS targets. Due to the small size of the glycan and the deep HS2ST binding cavity, the glycan and protein were treated as ligand and analyte, respectively. Varyingly sulfated HS fragments conjugated to biotin linkers were purchased from Glycan Therapeutics Inc. with purities greater than 93% according to HPLC (sequences located in Supplementary Table 1). The glycans were immobilized onto streptavidin (SA) labeled biosensors (FortéBio; cat. #18–5019) at 0.5 µg/mL. Experiments were performed at 25 °C in PBS Buffer (10 mM sodium phosphate, 150 mM NaCl, pH 7.8) with a final concentration of 1X Pall Kinetics buffer (FortéBio Inc; cat. #18–1092). Fresh biosensors and protein samples were used for each measurement (no regeneration step). […]

As to “GlcNS-GlcA-GlcNS-IdoA-GlcNS-GlcA~ [Compound 1]”, the “Equilibrium KD, WT glyc-HS2ST” value in assay [1] is on record as “too weak to measure”. In addition, in assay [2], the “Equilibrium KD, WT non-glyc-HS2ST” value is “too weak to measure; also recorded: insufficient for KD determination”.
